Assay results reported in US8288350B2, “Methods to prevent and treat diseases” (Nour Heart, Inc., priority 2006, dated 2012).
Where no end group is shown, it is not given here. The star is where a group is joined. Boc = CC(C)(C)OC(=O)*

Columns and labels:
[1] = test system: Neutrophils isolated from human peripheral blood; assay: Inhibition of neutrophil chemotaxis induced by human vascular Nourin (vein graft samples, 96 well chemotaxis plates); assay type: cell-based
Protocol: Isolated Human Vein Grafts: Patients' leg veins were removed from five patients scheduled for coronary bypass surgery. The samples for each patient were distended for 10 minutes at 300 mm Hg pressure and incubated in buffer (HBSS) for 1 hour at room temperature. Undistended vein grafts were incubated at room temperature in HBSS for one hour and then the solutions were tested for chemotactic activity.
Chemotaxis Assay: The chemotactic activity of vein samples was tested using standard chemotaxis assay. Briefly, neutrophils were isolated from human peripheral blood and labeled by fluorescence dye. These labeled neutrophils were used as migratory cells and placed on the top chamber of the 96 well chemotaxis plates. The vein samples were placed at the bottom wells of the plate. A filter was placed in between and the ability of the tested samples to stimulate the migration of neutrophils across the membrane was determined by incubating the chamber at 37° C. for 1 hour. The standard synthetic chemoattractant f-Met-Leu-Phe (f-MLF (SEQ ID NO:11)) was used as the positive control for 100% chemotactic response. Hank's Balanced Salt Solution (HBSS) was the negative control for random migration. Neutrophil migration was reported as the number of labeled neutrophils detected at the bottom wells which crossed the membrane filter in response to the test solutions. The samples were tested in triplicate wells.
Inhibition of the human vascular Nourin by the N-formylmethionyl blocker t-Boc-FLFLF (SEQ ID NO:2): t-Boc FLFLF (SEQ ID NO:2) is a FPR antagonist and was tested for its ability to inhibit Nourin activity on neutrophil migration. In the chemotaxis chamber, t-Boc-FLFLF (SEQ ID NO:2) was used at a final concentrations of 10^−5 Molar. […] In one human sample, t-Boc-FLFLF (SEQ ID NO:2) inhibited 100% of neutrophil chemotaxis. Similarly, the FPR antagonist Spinorphin inhibited neutrophil chemotaxis stimulated by Nourin.

[2] = test system: Neutrophils isolated from human peripheral blood; assay: Inhibition of neutrophil chemotaxis induced by chemotactic factor released by H1N1-infected MDCK cells (modified chemotaxis chamber); assay type: cell-based; conditions: concentrations about 10^-5 to 10^-3 Molar; supernatant of MDCK cells incubated with H1N1 for 6 hours
[3] = test system: Neutrophils isolated from human peripheral blood; assay: Inhibition of fMLF chemotactic activity (chemotaxis chamber); assay type: cell-based; conditions: FIG. 3
[4] = Global warm ischemia by aortic cross clamping, then working Longerdorff heart; assay type: in vivo, dog
Protocol: Cyclocreatine (25 gm in 500 ml saline) was injected intravenously into a dog one hour before the induction of global warm ischemia. Control dogs received saline. All dogs underwent one hour of global warm ischemia by cross clamping the aorta. After the one hour of warm ischemia, hearts were removed, perfused for an additional four hours with buffer containing 1% cyclocreatine ([…]), and then placed on a working Longerdorff to measure cardiac function. After the initiation of the aortic cross clamping, cyclocreatine-treated heart continued to beat for 9 minutes during warm ischemia, while the control heart stopped beating after 2 minutes. Similarly, myocardial pH was 7.04 in the cyclocreatine-treated heart compared to pH 6.00 in control heart when measured 6 minutes after the induction of warm ischemia.
The results indicated a reduction of the caspase enzyme activities in the cyclocreatine dog (26-76% reduction of baseline) compared to the significant stimulation observed in control dogs (1.44-3.86-fold increase over baseline). […] Cyclocreatine treatment may stimulate the anti-apoptotic members of the family such as Bcl-2 and/or Bcl-x, or inhibit the pro-apoptotic members of the family such as Bak, Bax, and Bim.

LVVYPWT [Spinorphin, Leu-Val-Val-Tyr-Pro-Trp-Thr]
inhibition of neutrophil chemotaxis stimulated by Nourin [1]: inhibited

t-Boc-Phe-Leu-Phe-Leu-Phe (Boc-FLFLF; not fully specified (residues 2, 4); printed as t-Boc-Phe-Leu-Phe-Leu-Phe)
inhibition of neutrophil chemotaxis induced by viral chemotactic factor [2]: 30%-100%
inhibition of fMLF chemotactic activity [3]: inhibits
inhibition of neutrophil chemotaxis induced by vascular Nourin ([1]; 10^-5 M final concentration): up to 60%
inhibition of neutrophil chemotaxis induced by vascular Nourin, one human sample ([1]; one human sample): 100%

NC1=NCCN1CC(=O)O [cyclocreatine]
myocardial pH ([4]; 6 minutes after induction of warm ischemia, control pH 6.00): 7.04
reduction of caspase enzyme activities ([4]; control dogs 1.44-3.86-fold increase over baseline): 26-76 % reduction of baseline
time heart continued to beat during warm ischemia after aortic cross clamping ([4]; dog, 25 gm in 500 ml saline i.v. one hour before ischemia, control 2 minutes): 9 min
TNF-α released by monocytes ([4]; dog, in vivo): reduced
inflammation/pain and injury induced by inflammation ([4]; dog, in vivo): reduced
level of the cardiac-derived leukocyte factor ([4]; dog, in vivo): reduced
contractility on the Longerdorff working heart ([4]; one-hour analysis, control strong only first 15-20 minutes): strong contractility throughout the one-hour analysis
apoptosis as measured by caspase enzyme activity ([4]; treated heart vs controls): significant reduction
myocardial ATP compared to controls ([4]; treated heart vs controls): three-fold increase
intracellular edema as measured by MRI ([4]; vs control): reduced
myocardial tissue lactic acidosis (per MRI) ([4]; vs control): reduced
level of cell injury marker malondialdehyde ([4]; vs controls): reduced
